Experiment [1] has as its system TGF-β-stimulated SMAD3 phosphorylation in BEAS-2B cells. Kind of experiment: Cellular ALK5 potency assay, inhibition of TGF-β stimulated pSMAD3 formation in BEAS-2B cells. It counts as cell-based. To be noted: Homo sapiens, pSMAD3, TGF-β 10 ng/mL, read-out: BEAS2B pIC50 (converted). The procedure, abridged:
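Potency is expressed as pIC50, based on dose-dependent reduction of TGF-β-induced pSMAD3 AlphaLISA signal relative to stimulated cells without compound. BEAS-2B cells received compound 1 h before a 30 min, 10 ng/mL TGF-β challenge.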

In experiment [2] the target is T1, recombinant human ALK5 (TGF-βR1) protein (Homo sapiens, UniProt P36897).
T1 construct: purchased Life Technologies PR9075A
T1 sequence (P36897 34-503): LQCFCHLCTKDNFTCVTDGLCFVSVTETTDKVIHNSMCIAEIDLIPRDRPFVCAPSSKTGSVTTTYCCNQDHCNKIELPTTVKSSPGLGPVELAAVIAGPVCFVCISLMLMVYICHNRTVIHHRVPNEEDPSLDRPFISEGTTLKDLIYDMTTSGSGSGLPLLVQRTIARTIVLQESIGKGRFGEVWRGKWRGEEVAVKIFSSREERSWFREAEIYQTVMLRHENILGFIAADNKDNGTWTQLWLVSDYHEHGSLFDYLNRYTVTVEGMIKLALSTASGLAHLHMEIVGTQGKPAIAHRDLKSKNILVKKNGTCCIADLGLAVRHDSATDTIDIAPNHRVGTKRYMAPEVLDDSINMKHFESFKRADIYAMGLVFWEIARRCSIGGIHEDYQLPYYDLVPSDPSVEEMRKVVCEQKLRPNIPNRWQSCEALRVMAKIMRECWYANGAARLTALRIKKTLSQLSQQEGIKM
Kind of experiment: Biochemical ALK5 (TGF-βR1) assay to measure pKi (LANCE Ultra ULight kinase assay). To be noted: apparent pKi, converted from pIC50 by Cheng-Prusoff. A digest of the protocol: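 Dose-response series of each compound were preincubated with the kinase for 60 minutes at room temperature. Phosphorylation proceeded for 60 minutes at 37 °C after ATP addition, was quenched with EDTA, and was detected with a europium anti-phospho-Thr1342 antibody by TR-FRET; pKi was calculated from pIC50.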

With `Cc1cccc(-c2nccc(Nc3ccnc(Nc4cccc(CN5CC6CCC(C5)N6)c4)n3)n2)n1` [Compound 332, N2-[3-(3,8-diazabicyclo[3.2.1]octan-3-ylmethyl)phenyl]-N4-[2-(6-methyl-2-pyridyl)pyrimidin-4-yl]pyrimidine-2,4-diamine], the IC50 in experiment [1] was 25.1 to 158 nM. Besides, the Ki in experiment [2] is 0.0398 to 0.316 nM.

Regarding `Cc1cccc(-c2nccc(Nc3ccnc(Nc4ccc(-c5cn(Cc6ccccc6)nn5)cc4)n3)n2)n1` [Compound 333, N2-[4-(1-benzyltriazol-4-yl)phenyl]-N4-[2-(6-methyl-2-pyridyl)pyrimidin-4-yl]pyrimidine-2,4-diamine], the IC50 in experiment [1] is 25.1 to 158 nM. The Ki in experiment [2] is 3.98 to 31.6 nM.

`CNC(=O)[C@H]1CN(c2ccc(Nc3nccc(Nc4ccnc(-c5cccc(C)n5)n4)n3)cc2)CCN1` [Compound 334, (2R)-N-methyl-4-[4-[[4-[[2-(6-methyl-2-pyridyl)pyrimidin-4-yl]amino]pyrimidin-2-yl]amino]phenyl]piperazine-2-carboxamide]: the IC50 in experiment [1] was 25.1 to 158 nM. Further, in experiment [2], the Ki is 0.0398 to 0.316 nM.

For `COc1cc(Nc2nccc(Nc3ccnc(-c4cccc(C)n4)n3)n2)ccc1CN1C[C@@H](C)N[C@@H](C)C1` [Compound 335, N2-[3-methoxy-4-[[rac-(3S,5R)-3,5-dimethylpiperazin-1-yl]methyl]phenyl]-N4-[2-(6-methyl-2-pyridyl)pyrimidin-4-yl]pyrimidine-2,4-diamine], the IC50 in experiment [1] is 25.1 to 158 nM. Besides, in experiment [2], the Ki was 0.0398 to 0.316 nM.

Take `Cc1cccc(-c2nccc(Nc3ccnc(Nc4csc(C(=O)N[C@@H]5CCNC5)c4)n3)n2)n1` [Compound 336, 4-[[4-[[2-(6-methyl-2-pyridyl)pyrimidin-4-yl]amino]pyrimidin-2-yl]amino]-N-[(3R)-pyrrolidin-3-yl]thiophene-2-carboxamide]: in experiment [1], the IC50 is 25.1 to 158 nM. Further, the Ki in experiment [2] was ≤ 0.0316 nM.

For `Cc1cccc(-c2nccc(Nc3ccnc(Nc4ccc(N5CCC(C(=O)O[C@@H]6CCNC6)CC5)cc4)n3)n2)n1` [Compound 337, [(3R)-pyrrolidin-3-yl] 1-[4-[[4-[[2-(6-methyl-2-pyridyl)pyrimidin-4-yl]amino]pyrimidin-2-yl]amino]phenyl]piperidine-4-carboxylate], in experiment [1], the IC50 was 25.1 to 158 nM. The Ki in experiment [2] was 0.0398 to 0.316 nM.

In the case of `Cc1cccc(-c2nccc(Nc3ccnc(Nc4ncc(C(=O)OCC5CNC5)s4)n3)n2)n1` [Compound 338, azetidin-3-ylmethyl 2-((4-((2-(6-methylpyridin-2-yl)pyrimidin-4-yl)amino)pyrimidin-2-yl)amino)thiazole-5-carboxylate], in experiment [1], the IC50 was 200 to 1260 nM. The Ki in experiment [2] was 3.98 to 31.6 nM.

With `Cc1cccc(-c2nccc(Nc3ccnc(Nc4nc(CN5CCC[C@@H](C(=O)O)C5)cs4)n3)n2)n1` [Compound 339, (3R)-1-[[2-[[4-[[2-(6-methyl-2-pyridyl)pyrimidin-4-yl]amino]pyrimidin-2-yl]amino]thiazol-4-yl]methyl]piperidine-3-carboxylic acid], the IC50 in experiment [1] was 200 to 1260 nM. In experiment [2], the Ki was 0.398 to 3.16 nM.

`Cc1cccc(-c2nc(Nc3ccnc(Nc4ccc(N5CCOCC5)cc4)n3)c3nn[nH]c3n2)n1` [Compound 340, N4-[5-(6-methyl-2-pyridyl)-3H-triazolo[4,5-d]pyrimidin-7-yl]-N2-(4-morpholinophenyl)pyrimidine-2,4-diamine]: the IC50 in experiment [1] is 200 to 1260 nM. Also, the Ki in experiment [2] is 0.0398 to 0.316 nM.

For the compound `Cc1cccc(-c2nccc(Nc3ccnc(Nc4ccc(CN5CCC[C@@H](C(=O)O[C@@H]6CCN(C)C6)C5)cc4)n3)n2)n1` [Compound 341, [(3R)-1-methylpyrrolidin-3-yl] (3R)-1-[[4-[[4-[[2-(6-methyl-2-pyridyl)pyrimidin-4-yl]amino]pyrimidin-2-yl]amino]phenyl]methyl] piperidine-3-carboxylate], in experiment [1], the IC50 is 25.1 to 158 nM. In addition, in experiment [2], the Ki is 0.0398 to 0.316 nM.

Regarding `Cc1cccc(-c2nccc(Nc3ccnc(Nc4ccc(NC[C@@H]5CCCN5)cc4)n3)n2)n1` [Compound 342, N4-[2-(6-methyl-2-pyridyl)pyrimidin-4-yl]-N2-[4-[[(2S)-pyrrolidin-2-yl]methylamino]phenyl] pyrimidine-2,4-diamine], the IC50 in experiment [1] is 25.1 to 158 nM. The Ki in experiment [2] was 0.0398 to 0.316 nM.

In the case of `Cc1cccc(-c2nccc(Nc3ccnc(Nc4ccc(N5CCC(N)CC5)c(F)c4)n3)n2)n1` [Compound 343, N2-[4-(4-amino-1-piperidyl)-3-fluoro-phenyl]-N4-[2-(6-methyl-2-pyridyl)pyrimidin-4-yl]pyrimidine-2,4-diamine], the IC50 in experiment [1] is 25.1 to 158 nM. The Ki in experiment [2] was ≤ 0.0316 nM.

In the case of `Cc1cccc(-c2nccc(Nc3ccnc(Nc4ccc(CN5C[C@@H](C)NC[C@@H]5C)cc4)n3)n2)n1` [Compound 344, N2-[4-[[(2S,5R)-2,5-dimethylpiperazin-1-yl]methyl]phenyl]-N4-[2-(6-methyl-2-pyridyl)pyrimidin-4-yl]pyrimidine-2,4-diamine], the IC50 in experiment [1] was 25.1 to 158 nM. Also, the Ki in experiment [2] is 0.0398 to 0.316 nM.

In the case of `Cc1cccc(-c2nccc(Nc3ccnc(Nc4cc(C(=O)O[C@H]5CCN(C)C5)cs4)n3)n2)n1` [Compound 345, [(3S)-1-methylpyrrolidin-3-yl] 5-[[4-[[2-(6-methyl-2-pyridyl)pyrimidin-4-yl]amino]pyrimidin-2-yl]amino]thiophene-3-carboxylate], in experiment [1], the IC50 is 25.1 to 158 nM. In experiment [2], the Ki is 0.0398 to 0.316 nM.

As to `Cc1cccc(-c2nccc(Nc3ccnc(Nc4ccc(NCCN5CCN(C(C)C)CC5)cc4)n3)n2)n1` [Compound 346, N2-[4-[2-(4-isopropylpiperazin-1-yl)ethylamino]phenyl]-N4-[2-(6-methyl-2-pyridyl)pyrimidin-4-yl]pyrimidine-2,4-diamine], in experiment [1], the IC50 was 25.1 to 158 nM. In addition, the Ki in experiment [2] is 0.0398 to 0.316 nM.

With `CNCCn1cc(-c2ccc(Nc3nccc(Nc4ccnc(-c5cccc(C)n5)n4)n3)cc2)cn1` [Compound 347, N2-(4-(1-(2-(methylamino)ethyl)-1H-pyrazol-4-yl)phenyl)-N4-(2-(6-methylpyridin-2-yl)pyrimidin-4-yl)pyrimidine-2,4-diamine], in experiment [1], the IC50 was 25.1 to 158 nM. Moreover, the Ki in experiment [2] was 0.0398 to 0.316 nM.

Take `COc1cc(N2CCOCC2)ccc1Nc1nccc(Nc2ccnc(-c3cccc(C)n3)n2)n1` [Compound 348, N2-(2-methoxy-4-morpholino-phenyl)-N4-[2-(6-methyl-2-pyridyl)pyrimidin-4-yl]pyrimidine-2,4-diamine]: the IC50 in experiment [1] is 200 to 1260 nM. In experiment [2], the Ki is 3.98 to 31.6 nM.

Consider `Cc1cccc(-c2nccc(Nc3ccnc(Nc4nc(C(=O)N5CCN[C@@H](CO)C5)cs4)n3)n2)n1` [Compound 349, [(3R)-3-(hydroxymethyl)piperazin-1-yl]-[2-[[4-[[2-(6-methyl-2-pyridyl)pyrimidin-4-yl]amino]pyrimidin-2-yl]amino]thiazol-4-yl]methanone], for which, in experiment [1], the IC50 is 200 to 1260 nM. Besides, the Ki in experiment [2] is 0.398 to 3.16 nM.

`Cc1cccc(-c2nccc(Nc3ccnc(Nc4ccc(Cl)c(CN5CCSCC5)c4)n3)n2)n1` [Compound 350, N2-[4-chloro-3-(thiomorpholinomethyl)phenyl]-N4-[2-(6-methyl-2-pyridyl)pyrimidin-4-yl]pyrimidine-2,4-diamine]: the IC50 in experiment [1] was 25.1 to 158 nM. Also, the Ki in experiment [2] is 0.398 to 3.16 nM.

With `Cc1cccc(-c2nccc(Nc3ccnc(Nc4ccc(C5COCCN5)cc4)n3)n2)n1` (stereo not drawn) [Compound 351, N4-[2-(6-methyl-2-pyridyl)pyrimidin-4-yl]-N2-(4-morpholin-3-ylphenyl)pyrimidine-2,4-diamine], the IC50 in experiment [1] was ≤ 20 nM. The Ki in experiment [2] was 0.0398 to 0.316 nM.

On to `CNC1CCN(S(=O)(=O)c2ccc(Nc3nccc(Nc4ccnc(-c5cccc(C)n5)n4)n3)cc2)CC1` [Compound 352, N2-[4-[[4-(methylamino)-1-piperidyl]sulfonyl]phenyl]-N4-[2-(6-methyl-2-pyridyl)pyrimidin-4-yl]pyrimidine-2,4-diamine], for which the IC50 in experiment [1] was 25.1 to 158 nM. Besides, in experiment [2], the Ki was 0.0398 to 0.316 nM.

On to `CC(=O)N(CC1CNC1)c1ccc(Nc2nccc(Nc3ccnc(-c4cccc(C)n4)n3)n2)cc1` [Compound 353, N-(azetidin-3-ylmethyl)-N-[4-[[4-[[2-(6-methyl-2-pyridyl)pyrimidin-4-yl]amino]pyrimidin-2-yl]amino]phenyl]acetamide], for which the IC50 in experiment [1] was 25.1 to 158 nM. The Ki in experiment [2] is 0.0398 to 0.316 nM.

Consider `Cc1nc(-c2nccc(Nc3ccnc(Nc4ccc(N5CCOCC5)cc4)n3)n2)ccc1F` [Compound 354, N4-[2-(5-fluoro-6-methyl-2-pyridyl)pyrimidin-4-yl]-N2-(4-morpholinophenyl)pyrimidine-2,4-diamine], for which the IC50 in experiment [1] is 25.1 to 158 nM. In experiment [2], the Ki is 0.398 to 3.16 nM.

As for `Cc1cccc(-c2nccc(Nc3ccnc(Nc4ccc(NCCN5CCOCC5)cc4)n3)n2)n1` [Compound 355, N4-[2-(6-methyl-2-pyridyl)pyrimidin-4-yl]-N2-[4-(2-morpholinoethylamino)phenyl] pyrimidine-2,4-diamine], the IC50 in experiment [1] is 25.1 to 158 nM. For the same compound, the Ki in experiment [2] is 0.398 to 3.16 nM.

For the origin of these results see patent US20230399312A1, “SUBSTITUTED PYRIMIDINES AND METHODS OF USE” (THERAVANCE BIOPHARMA R&D IP, LLC, priority 2020, published 2023).
